Data reported in patent publication US20260055143A1, “HIGH AFFINITY VARIANTS OF SH2 DOMAINS” (Axoiya Inc., priority 2023, published 2026).

System: PPPT{pTyr}TEVDP
Assay: Competitive ELISA, Ptn11_C variants
Assay type: binding
Procedure: Competitive and non-competitive phage ELISAs were performed as previously described with minor modifications to the protocol. Peptide sequences used for these analyses can be found in Table 4.
Streptavidin (50 ng/well in TBS (50 mM Tris-HCl pH 8.0, 150 mM NaCl) was coated onto MAXISORP plates (Thermo Scientific). Phage binding was detected using HRP conjugated anti-M13 secondary antibody (1/2000 dilution, GE Healthcare) in TBS buffer containing 0.05% Tween-20 (TBT buffer). Phage binding was detected using the 3,3′,5,5′-tetramethylbenzidine (TMB) (Thermo Fisher Scientific) chromogenic substrate. Plates were read using a PowerWave XS microplate reader (BioTek).
Competitive phage-ELISAs were used to determine binding affinity of SH2 superbinders for their cognate target. ELISAs were performed as previously described, biotinylated and phosphorylated peptides were immobilized on plates at the concentration of 0.2 μM, and available binding sites on streptavidin were blocked by adding 25 μl/well of 50 μM D-biotin in TBS. […] Data were plotted using Prism 6 software (GraphPad Software Inc) and affinity of SH2 domains was inferred from determination of the half maximal inhibition concentration (IC50).
Peptides listed in Table 5 were used to assay for binding affinity of each corresponding SH2 domain.

change in binding (αA-2-Arg mutation alone): not sufficient to enhance the binding
Substance: Ptn11_C^wt: wild-type PTN11_C SH2 domain, SEQ ID 57
change in affinity (with either the sSrc or sFes graft): no improvement in affinity
